Laboratory results published in US8492350B2, “Therapeutic agent for pain disease” (Nippon Zoki Pharmaceutical Co., Ltd., priority 2007, dated 2013).

Tests used:
[1] = disclosed in Patent Document 1 / Example 8 of Japanese Examined Patent Publication No. 63/028,411; cited from earlier work
[2] = tested on: Chung model rats which are models of neuropathic pain; test: Test for analgesic effect (allodynia, von Frey filament, up-down method) in Chung model rats; format: in vivo, rats of Wistar strain; conditions: for 50% Reaction Threshold Values, Before Administration: baseline
Experimental: Test for analgesic effect was conducted using Chung model rats which are models of neuropathic pain. Male rats of Wistar strain of 9 weeks age were used as experimental animals and model rats were prepared according to a method of Kim and Chung (Pain, vol. 50, pages 355 to 363, 1992). Thus, when they were in 10 weeks age, rat L5 spinal nerve was exposed and the periphery side of L5 dorsal root ganglion was strongly ligated with 5-0 silk yarn under anesthetizing with pentobarbital (40 mg/kg, intraperitoneal administration) to conduct a nerve damage. The animals were placed in a transparent acrylic cage where the bottom was wire net, 50% reaction threshold values were calculated by an up-down method using a von Frey filament (manufactured by North Coast Medical Inc.) according to a method of Chaplan, et al. (J. Neurosci. Method, vol. 53, pages 55 to 63, 1994) and the effect of the test substance to allodynia was measured. […] In those experimental animals, each group comprised seven animals using the 50% reaction threshold values after the nerve damage as an index and the group constitution was done in such a manner that mean values of a nerve damage control group and of a test substance-administered group were made nearly uniform.
N-acetylneuraminic acid as a test substance was intraperitoneally administered in a single dose (120 mg/kg). A 0.5% CMC-Na (w/v) solution/physiological saline was similarly administered to the nerve damage control group (control group). After 30 minutes from the administration of a test substance, pain tests were conducted and the calculated 50% reaction threshold values were expressed in terms of mean value±standard deviation for each group.
Further, in the same manner as the above test, N-acetylneuraminic acid as a test substance was orally administered in a single dose (300 mg/kg). Injection solvent was administered to a nerve damage control group (control group) in the same manner. After 60 minutes from the administration of a test substance, pain tests were conducted and the 50% reaction threshold values were calculated. Numbers of the animals were eight for each of the nerve damage control group and the test substance-administered group.

SMILES | Acute toxicity [1] | 50% reaction threshold value as compared with the nerve damage control group (anti-allodynia action) ([2]; both single intraperitoneal injection and single oral administration) | 50% Reaction Threshold Values, Before Administration ([2]; group later given a single intraperitoneal dose of 120 mg/kg, mean ± standard deviation) [g] | 50% Reaction Threshold Values, Before Administration ([2]; group later given a single oral dose of 300 mg/kg) [g] | 50% Reaction Threshold Values, After 30 minutes from Administration ([2]; single intraperitoneal dose 120 mg/kg, 30 minutes after administration, mean ± standard deviation, *P < 0.05 vs nerve damage control) | 50% Reaction Threshold Values, After 60 minutes from Administration ([2]; single oral dose 300 mg/kg, 60 minutes after administration, *P < 0.05 vs nerve damage control)
CC(=O)N[C@H]1[C@H]([C@H](O)[C@H](O)CO)OC(O)(C(=O)O)C[C@@H]1O (stereo partly shown) [N-Acetylneuraminic Acid, N-acetylneuraminic acid] | very low and safe | significant rise | 2.63 ± 0.21 | 2.75 ± 0.15 | 6.74 ± 1.64* g | 4.81 ± 0.35* g
CC(=O)N[C@H]1[C@H]([C@H](O)[C@H](O)CO)OC(O)(C(=O)[O-])C[C@@H]1O.[Na+] (stereo partly shown) [sodium N-acetylneuraminate] | very lowly toxic | – | – | – | – | –
